In ChEMBL document CHEMBL1275499, “Glycogen synthase kinase 3 is a potential drug target for African trypanosomiasis therapy” (Antimicrob Agents Chemother, 2008):

Experiments:
[1] = Inhibition of Trypanosoma brucei recombinant MBP-fused GSK-3 short isoform expressed in Escherichia coli by scintillation proximity assay
[2] = test system: Trypanosoma brucei; experiment: microbe, parasite or virus in culture; assay type: functional, organism-based; details: Trypanosoma brucei, 427, 48 h
Description: Antitrypanosomal activity against blood stream form of Trypanosoma brucei 427 assessed as growth inhibition after 48 hrs by alamar blue assay

| SMILES | EC50 [2] [µM] | IC50 [1] [µM] |
| --- | --- | --- |
| O=C1Nc2ccc3ncsc3c2/C1=C/Nc1ccc(S(=O)(=O)Nc2ccccn2)cc1 | 0.119 | 0.001 |
| Nc1nc(Nc2cccc(S(N)(=O)=O)c2)nn1C(=S)Nc1c(F)cccc1F | 0.02 | 0.013 |
| O=C1NC(=O)C(c2ccccc2[N+](=O)[O-])=C1Nc1ccc(O)c(Cl)c1 | 0.74 | 1 |
| N#CCCc1ccc2c(c1)-c1[nH]c3ccc([N+](=O)[O-])cc3c1CC(=O)N2 [ALSTERPAULLONE 2] | 0.15 | 0.336 |
| COc1ccc2c(c1)/C(=C/c1cnc[nH]1)C(=O)N2 [SU-9516] | 0.18 | 0.352 |

Further lines, with some results ahead:

| EC50 [2] [µM] | SMILES | IC50 [1] [µM] |
| --- | --- | --- |
| 0.05 | CN(C)CCCC(=O)Nc1nccc(/C(C#N)=C2\NC(C(C)(C)C)=CS2)n1 | 0.004 |
| 0.065 | CN1CCC(C(=O)Nc2nccc(/C(C#N)=C3\NC(C(C)(C)C)=CS3)n2)CC1 | 0.03 |
| 0.2 | CC(C)(C)C1=CS/C(=C(\C#N)c2ccnc(NC(=O)C3CCNCC3)n2)N1 | 0.046 |
| 0.41 | CC(=O)N1CCC(C(=O)Nc2nccc(/C(C#N)=C3\NC(C(C)(C)C)=CS3)n2)CC1 | 0.022 |
| 0.458 | CN(C)CC(=O)N1CCC(C(=O)Nc2nccc(/C(C#N)=C3\NC(C(C)(C)C)=CS3)n2)CC1 | 0.03 |
| 0.705 | CC(C)(C)C1=CS/C(=C(\C#N)c2ccnc(NCCCCN3C(=O)CCC3=O)n2)N1 | 0.168 |
